Results taken from patent publication US6500826B1, “Use of panaverium bromide for preventing cell proliferation and diseases caused thereby in the liver and digestive tract” (Solvay Pharma, priority 1996, dated 2002).

What was measured:
Format in all cases: cell-based
[1] = test system: HT29 colon cancer cell line; experiment: Inhibition of proliferation of HT29 colon cancer cells, tritiated thymidine incorporation; settings: Homo sapiens, HT-29, 15 h, read-out: % Inhibition of cell proliferation (3HThdR incorporation)
Method: The HT29 colon cancer cell line employed (originally isolated from an adenocarcinoma of the human colon) was obtained from the ATCC (American Type Culture Collection).
The cells are cultured at the rate of 10^4 or 5×10^4 cells in a well containing 200 μl of culture medium composed of RPMI […] supplemented with 10% fetal calf serum, 2 mM of L-glutamine and 25 μM gentamicin.

[2] = test system: LFC rat hepatocarcinoma cells; experiment: Inhibition of proliferation of LFC hepatocarcinoma cells, tritiated thymidine incorporation; settings: concentrations of 0.1% and 1% by weight
Method: LFC rat hepatocarcinoma cells (VPR42, Villejuif) are cultured at the rate of 10^4 or 5×10^4 cells in a well containing 200 μl of culture medium.
Inhibition of cell proliferation is assessed using tritiated thymidine as described in Test 1. The assessment is made in comparison with the reference product, which is verapamil.

[3] = test system: STC-1 mouse intestinal cancer cell lines; experiment: Growth of STC-1 carcinoid intestinal cells, cell counting or MUH fluorescence; settings: STC-1, read-out: ED50 (cell growth)
Method: The STC-1 mouse intestinal cancer cell lines are cultured in a DMEM medium which contains 15% horse serum and 2.5% FCS. The products to be studied are added to the culture and cell growth is assessed by counting cells or, more frequently, by a fluorescence technique which is based on the cellular enzymic hydrolysis of the fluorogenic substrate 4-methylumbelliferyl heptanoate (MUH); thus, viable cells which are incubated with MUH generate a fluorescent signal which is proportional to their number and which is determined using a “Titentec Fluoroscan II” (Flow Laboratory), with the value being given in arbitrary fluorescence units.

[4] = test system: BON human pancreatic carcinoid cell lines; experiment: Inhibition of growth of BON pancreatic carcinoid cells, MUH fluorescence; settings: 192 h, read-out: ED50 (inhibition of cell growth)
Method: The BON human pancreatic carcinoid cell lines are cultured in a DMEM/F12K (1/1) medium to which 10% FCS is added.

Q: With `COc1ccc(CCN(C)CCCC(C#N)(c2ccc(OC)c(OC)c2)C(C)C)cc1OC` (stereo not drawn) [verapamil] as the compound, how does the inhibition at 0.025 % strength [1] read?
A: Its inhibition at 0.025 % strength is 17%.

Q: What about the inhibition at 0.05 % strength [1] of the same compound?
A: Its inhibition at 0.05 % strength is 17%.

Q: What about the inhibition at 0.1 % strength [1] of the same compound?
A: Its inhibition at 0.1 % strength is 27%.

Q: What about the “percentage inhibition of proliferation” value [2] of the same compound?
A: The value was 72%.

Q: What about the EC50 [3] of the same compound?
A: Its EC50 is 13 µM.

Q: What about the EC50 [4] of the same compound?
A: The EC50 was 43.6 µM.
